Like-named read-outs stand apart in the source and are kept apart here.
Experiments:
human OATP1B3 = details: bosentan 100 µM, competitive, transfected CHO cells; ref [45]; cited from earlier work
human OATP1B1 = details: bosentan 100 µM, competitive, transfected CHO cells; ref [45]; cited from earlier work
human OATP2B1 = details: bosentan 100 µM, competitive, transfected CHO cells; ref [45]; cited from earlier work
[1] = system: human sandwich-cultured hepatocytes (SCH); details: for Accumulation Cells / Accumulation Cells + Bile / BEI: + 2 µM GF120918, 1 µM [3H]digoxin 10 min or 5 µM fexofenadine 30 min
[2] = system: perfused livers from Mrp2-deficient TR^− rats; test: In situ single-pass liver perfusion; type: in vivo, rat; details: GF120918 coadministration
[3] = system: rat isolated perfused livers; details: P-gp inhibitor erythromycin, ref [43]; cited from earlier work

COc1ccccc1Oc1c(NS(=O)(=O)c2ccc(C(C)(C)C)cc2)nc(-c2ncccn2)nc1OCCO [bosentan]
Inhibition of transport of model probes (human OATP1B3): ~ 40%
Inhibition of transport of model probes (human OATP1B1): ~ 40%
Inhibition of transport of model probes (human OATP2B1): ~ 40%

COc1cc2c(cc1OC)CN(CCc1ccc(NC(=O)c3cccc4c(=O)c5cccc(OC)c5[nH]c34)cc1)CC2 [GF120918, N-(4-[2-(1,2,3,4-tetrahydro-6,7-dimethoxy-2-isoquinolinyl)ethyl]-phenyl)-9,10-dihydro-5-methoxy-9-oxo-4-acridine carboxamide]
Effect on fexofenadine BEI and in vitro biliary clearance ([1]; 2 µM GF120918, human SCH): not affected
Effect on BEI and in vitro biliary clearance of [3H]digoxin ([1]; 2 µM GF120918, human SCH, both livers): abolished completely
Fexofenadine Cl’biliary as % of control [2]: 27.5 % of control

C[C@H]1O[C@@H](O[C@H]2[C@@H](O)C[C@H](O[C@H]3[C@@H](O)C[C@H](O[C@H]4CC[C@@]5(C)[C@H](CC[C@@H]6[C@@H]5C[C@@H](O)[C@]5(C)[C@@H](C7=CC(=O)OC7)CC[C@]65O)C4)O[C@@H]3C)O[C@@H]2C)C[C@H](O)[C@@H]1O [[^3H]Digoxin, digoxin]
Accumulation Cells ([1]; Liver 1): 29.9 ± 1.6 pmol/mg
Accumulation Cells + Bile ([1]; Liver 1): 26.2 ± 0.9 pmol/mg
BEI ([1]; Liver 1): 0%
Accumulation Cells ([1]; Liver 1, listed as [^3H]digoxin): 29.9 pmol/mg
Accumulation Cells ([1]; Liver 2): 25.2 ± 1.6 pmol/mg
Accumulation Cells + Bile ([1]; Liver 2): 23.4 ± 2.3 pmol/mg
BEI ([1]; Liver 2): 0%

CC[C@H]1OC(=O)[C@H](C)[C@@H](O[C@H]2C[C@@](C)(OC)[C@@H](O)[C@H](C)O2)[C@H](C)[C@@H](O[C@@H]2O[C@H](C)C[C@H](N(C)C)[C@H]2O)[C@](C)(O)C[C@@H](C)C(=O)[C@H](C)[C@@H](O)[C@]1(C)O [erythromycin]
Effect on cumulative recovery of fexofenadine in bile [3]: decreased
